The source of these data is patent US9822114B2, “Tricyclic oxazolidinone antibiotic compounds” (Idorsia Pharmaceuticals Ltd, priority 2008, dated 2017).

Values after ≈ are worked out from the molar mass of the structure shown.

The subject of one assay is M. catarrhalis A894. In words: Minimal inhibitory concentration (MIC), microdilution method in cation-adjusted Mueller-Hinton Broth (CLSI M7-A7). Type of assay: cell-based. As to conditions: Moraxella catarrhalis, strain A894. As to the method:
Minimal inhibitory concentrations (MICs; mg/1) were determined in cation-adjusted Mueller-Hinton Broth by a microdilution method following the description given in “Methods for Dilution Antimicrobial Susceptibility Tests for Bacteria that Grow Aerobically”, Approved standard, 7th ed., Clinical and Laboratory Standards Institute (CLSI) Document M7-A7, Wayne, Pa., USA, 2006.
A general note: In broth dilution the organism is exposed to a series of concentrations in liquid medium.
Consider `O=C1CSc2ccc(N3C[C@@H](CCCNC4CN5C(=O)CNc6ccc(F)c4c65)OC3=O)nc2N1` (mixture of isomers) [Example 200, (RS)-7-fluoro-6-{3-[(R)-2-oxo-3-(3-oxo-3,4-dihydro-2H-pyrido[3,2-b][1,4]thiazin-6-yl)-oxazolidin-5-yl]-propylamino}-1,2,5,6-tetrahydro-pyrrolo[1,2,3-de]quinoxalin-3-one], for which the MIC (commonly the least concentration at which growth counts as inhibited) is not above 0.031 µg/mL.
In turn, `CN1CC(=O)N2CC(NCCC[C@@H]3CN(c4ccc5c(n4)NC(=O)CS5)C(=O)O3)c3c(F)ccc1c32.Cl.Cl` (mixture of isomers) [Example 201, (RS)-7-fluoro-6-{3-[(R)-2-oxo-3-(3-oxo-3,4-dihydro-2H-pyrido[3,2-b][1,4]thiazin-6-yl)-oxazolidin-5-yl]-propylamino}-1-methyl-1,2,5,6-tetrahydro-pyrrolo[1,2,3-de]quinoxalin-3-one dihydrochloride] gave a minimum inhibitory concentration (MIC) not above 0.031 µg/mL.
Turning to `Cl.Cl.O=C1CSc2ccc(N3C[C@@H](CCCNC4CN5C(=O)CN(CCCO)c6ccc(F)c4c65)OC3=O)nc2N1` (mixture of isomers) [Example 202, (RS)-7-fluoro-6-{3-[(R)-2-oxo-3-(3-oxo-3,4-dihydro-2H-pyrido[3,2-b][1,4]thiazin-6-yl)-oxazolidin-5-yl]-propylamino}-1-(3-hydroxypropyl)-1,2,5,6-tetrahydro-pyrrolo[1,2,3-de]quinoxalin-3-one dihydrochloride], it took 0.063 µg/mL to inhibit growth (MIC).
For the molecule `O=C1CSc2ccc(N3C[C@@H](CCN[C@H]4Cn5c(=O)ccc6ccc(F)c4c65)OC3=O)cc2N1` (racemic) [Example 14, (1RS)-9-fluoro-1-{2-[(RS)-2-oxo-3-(3-oxo-3,4-dihydro-2H-benzo[1,4]thiazin-6-yl)-oxazolidin-5-yl]-ethylamino}-1,2-dihydro-pyrrolo[3,2,1-ij]quinolin-4-one], the MIC is not above 0.031 µg/mL.
Still for that read-out and setting: as for `O=C1O[C@H](CCNC[C@@H]2Cn3c(=O)ccc4ccc(F)c2c43)CN1c1cc2c(cn1)OCCO2` (racemic) [Example 42, (RS)-1-({2-[(RS)-3-(2,3-dihydro-[1,4]dioxino[2,3-c]pyridin-7-yl)-2-oxo-oxazolidin-5-yl]-ethylamino}-methyl)-9-fluoro-1,2-dihydro-pyrrolo[3,2,1-ij]quinolin-4-one], the figure is 2 µg/mL (≈ 4.29 µM); as for `O=C1O[C@H](CCNC[C@@H]2Cn3c(=O)ccc4ccc(F)c2c43)CN1c1ccc2c(n1)OCCO2` (racemic) [Example 43, (RS)-1-({2-[(RS)-3-(2,3-dihydro-[1,4]dioxino[2,3-b]pyridin-6-yl)-2-oxo-oxazolidin-5-yl]-ethylamino}-methyl)-9-fluoro-1,2-dihydro-pyrrolo[3,2,1-ij]quinolin-4-one], 1 µg/mL (≈ 2.14 µM); as for `O=C1COc2ccc(N3C[C@@H](CCNC[C@@H]4Cn5c(=O)ccc6ccc(F)c4c65)OC3=O)nc2N1` (racemic) [Example 47, (RS)-9-fluoro-1-({2-[(RS)-2-oxo-3-(3-oxo-3,4-dihydro-2H-pyrido[3,2-b][1,4]oxazin-6-yl)-oxazolidin-5-yl]-ethylamino}-methyl)-1,2-dihydro-pyrrolo[3,2,1-ij]quinolin-4-one], not above 0.031 µg/mL.
Molecule `O=C1CSc2ccc(N3C[C@@H](CCCNC[C@@H]4Cn5c(=O)ccc6cccc4c65)OC3=O)cc2N1` (racemic) [Example 83, (RS)-1-({3-[(RS)-2-oxo-3-(3-oxo-3,4-dihydro-2H-benzo[1,4]thiazin-6-yl)-oxazolidin-5-yl]-propylamino}-methyl)-1,2-dihydro-pyrrolo[3,2,1-ij]quinolin-4-one] came in with an MIC not above 0.031 µg/mL.
On the same count and under the same terms, for `O=C1CSc2ccc(N3C[C@H]([C@H](O)CCN[C@H]4Cn5c(=O)ccc6ccc(F)c4c65)OC3=O)cc2N1` (racemic) [Example 113, (1RS)-9-fluoro-1-{(3RS)-3-hydroxy-3-[(5RS)-2-oxo-3-(3-oxo-3,4-dihydro-2H-benzo[1,4]thiazin-6-yl)-oxazolidin-5-yl]-propylamino}-1,2-dihydro-pyrrolo[3,2,1-ij]quinolin-4-one] the value was not above 0.031 µg/mL; for `O=C1CSc2ccc(N3C[C@@H](CCCCN[C@H]4Cn5c(=O)ccc6ccc(F)c4c65)OC3=O)cc2N1` (racemic) [Example 159, (RS)-9-fluoro-1-{4-[(RS)-2-oxo-3-(3-oxo-3,4-dihydro-2H-benzo[1,4]thiazin-6-yl)-oxazolidin-5-yl]-butylamino}-1,2-dihydro-pyrrolo[3,2,1-ij]quinolin-4-one], not above 0.031 µg/mL; for `COC(=O)[C@H]1[C@H](NCCC[C@@H]2CN(c3ccc4c(c3)NC(=O)CS4)C(=O)O2)c2c(F)ccc3ccc(=O)n1c23` (relative stereo) [Example 181, (1R*,2R*)-9-fluoro-4-oxo-1-{3-[(R)-2-oxo-3-(3-oxo-3,4-dihydro-2H-benzo[1,4]thiazin-6-yl)-oxazolidin-5-yl]-propylamino}-1,2-dihydro-4H-pyrrolo[3,2,1-ij]quinoline-2-carboxylic acid methyl ester], not above 0.031 µg/mL.
`O=C1CSc2ccc(N3C[C@@H](CCCN[C@@H]4c5c(F)ccc6ccc(=O)n(c56)[C@H]4CO)OC3=O)cc2N1` (relative stereo) [Example 182, (1R*,2R*)-9-fluoro-2-hydroxymethyl-1-{3-[(R)-2-oxo-3-(3-oxo-3,4-dihydro-2H-benzo[1,4]thiazin-6-yl)-oxazolidin-5-yl]-propylamino}-1,2-dihydro-pyrrolo[3,2,1-ij]quinolin-4-one] gave an MIC not above 0.031 µg/mL.
Still for that read-out and setting: for `C[C@H]1[C@H](NCCC[C@@H]2CN(c3ccc4c(c3)NC(=O)CS4)C(=O)O2)c2c(F)ccc3ccc(=O)n1c23` (relative stereo) [Example 183, (1R*,2S*)-9-fluoro-2-methyl-1-{3-[(R)-2-oxo-3-(3-oxo-3,4-dihydro-2H-benzo[1,4]thiazin-6-yl)-oxazolidin-5-yl]-propylamino}-1,2-dihydro-pyrrolo[3,2,1-ij]quinolin-4-one] the value was not above 0.031 µg/mL; for `C[C@H]1[C@H](NCCC[C@H]2CN(c3ccc4c(c3)NC(=O)CS4)C(=O)O2)c2c(F)ccc3ccc(=O)n1c23` (relative stereo) [Example 184, (1R*,2S*)-9-fluoro-2-methyl-1-{3-[(S)-2-oxo-3-(3-oxo-3,4-dihydro-2H-benzo[1,4]thiazin-6-yl)-oxazolidin-5-yl]-propylamino}-1,2-dihydro-pyrrolo[3,2,1-ij]quinolin-4-one], not above 0.031 µg/mL; for `C[C@H]1[C@H](NCCC[C@@H]2CN(c3ccc4c(n3)NC(=O)CS4)C(=O)O2)c2c(F)ccc3ccc(=O)n1c23` (relative stereo) [Example 185, (1R*,2S*)-9-fluoro-2-methyl-1-{3-[(R)-2-oxo-3-(3-oxo-3,4-dihydro-2H-pyrido[3,2-b][1,4]thiazin-6-yl)-oxazolidin-5-yl]-propylamino}-1,2-dihydro-pyrrolo[3,2,1-ij]quinolin-4-one], not above 0.031 µg/mL.
Take `Cl.O=C1CSc2ccc(N3C[C@@H](CCCN[C@@H]4c5c(F)ccc6ccc(=O)n(c56)[C@H]4C(=O)O)OC3=O)cc2N1` (relative stereo) [Example 186, (1R*,2R*)-9-fluoro-4-oxo-1-{3-[(R)-2-oxo-3-(3-oxo-3,4-dihydro-2H-benzo[1,4]thiazin-6-yl)-oxazolidin-5-yl]-propylamino}-1,2-dihydro-4H-pyrrolo[3,2,1-ij]quinoline-2-carboxylic acid hydrochloride]: the MIC came out at 0.5 µg/mL.
The same measure, in the same setting: as for `NC[C@H]1[C@H](NCCC[C@@H]2CN(c3ccc4c(c3)NC(=O)CS4)C(=O)O2)c2c(F)ccc3ccc(=O)n1c23` (relative stereo) [Example 188, (1R*,2S*)-2-aminomethyl-9-fluoro-1-{3-[(R)-2-oxo-3-(3-oxo-3,4-dihydro-2H-benzo[1,4]thiazin-6-yl)-oxazolidin-5-yl]-propylamino}-1,2-dihydro-pyrrolo[3,2,1-ij]quinolin-4-one], the figure is not above 0.031 µg/mL; as for `O=C1CSc2ccc(N3C[C@@H](CCNC[C@@H]4Cn5c(=O)ccc6nccc4c65)OC3=O)cc2N1` [Example 15, (4R)-4-({2-[(R)-2-oxo-3-(3-oxo-3,4-dihydro-2H-benzo[1,4]thiazin-6-yl)-oxazolidin-5-yl]-ethylamino}-methyl)-4,5-dihydro-pyrrolo[3,2,1-de][1,5]naphthyridin-7-one], not above 0.031 µg/mL; as for `O=C1CSc2ccc(N3C[C@@H](CCCN[C@H]4Cn5c(=O)ccc6nccc4c65)OC3=O)cc2N1` [Example 18, (4R)-4-{3-[(R)-2-oxo-3-(3-oxo-3,4-dihydro-2H-benzo[1,4]thiazin-6-yl)-oxazolidin-5-yl]-propylamino}-4,5-dihydro-pyrrolo[3,2,1-de][1,5]naphthyridin-7-one], not above 0.031 µg/mL.

The assay is the same for the next values; noted with them: strain A894.
Turning to `Cc1ccc(N2C[C@@H](CCNC[C@@H]3Cn4c(=O)ccc5ccc(F)c3c54)OC2=O)cc1F` (racemic) [Example 6, (1RS)-9-fluoro-1-({2-[(RS)-3-(3-fluoro-4-methyl-phenyl)-2-oxo-oxazolidin-5-yl]-ethylamino}-methyl)-1,2-dihydro-pyrrolo[3,2,1-U]quinolin-4-one], the “MIC for M. catarrhalis A894” value stood at 0.125 µg/mL.
The same measure, in the same setting: for `O=C1CSc2ccc(N3C[C@@H](CCNCC4Cn5c(=O)ccc6cccc4c65)OC3=O)cc2N1` (mixture of isomers) [Example 53, (RS)-1-({2-[(R)-2-oxo-3-(3-oxo-3,4-dihydro-2H-benzo[1,4]thiazin-6-yl)-oxazolidin-5-yl]-ethylamino}-methyl)-1,2-dihydro-pyrrolo[3,2,1-U]quinolin-4-one] the value was “≦0.031 mg/l”; for `O=C1CSc2ccc(N3C[C@H](CCNCC4Cn5c(=O)ccc6cccc4c65)OC3=O)cc2N1` (mixture of isomers) [Example 61, (RS)-1-({2-[(S)-2-oxo-3-(3-oxo-3,4-dihydro-2H-benzo[1,4]thiazin-6-yl)-oxazolidin-5-yl]-ethylamino}-methyl)-1,2-dihydro-pyrrolo[3,2,1-U]quinolin-4-one], “≦0.031 mg/l”.
The same measure, in the same setting: as for `O=C1COc2ccc(N3C[C@H](CCNCC4Cn5c(=O)ccc6cccc4c65)OC3=O)cc2N1` (mixture of isomers) [Example 62, (RS)-1-({2-[(S)-2-oxo-3-(3-oxo-3,4-dihydro-2H-benzo[1,4]oxazin-6-yl)-oxazolidin-5-yl]-ethylamino}-methyl)-1,2-dihydro-pyrrolo[3,2,1-U]quinolin-4-one], the entry is “≦0.031 mg/l”.
